# From patent US20140121235A1, “Method for Treating S6K-Overexpressing Cancers” (Rush University Medical Center, priority 2012, published 2014)
# Tests used:
# [1] = tested on: AKT^S473 and S6K1^T389 phosphorylation; test: Western blot of PI-3 kinase pathway phosphorylation in A375 cells; type: cell-based; conditions: for effect on AKT^S473 phosphorylation in A77 1726-treated cells: A375 cells, MAP kinase pathway inhibitor plus A77 1726
# Method: (§1) A375 cells seeded in a 6-well plate were starved in DMEM medium containing 0.5% FBS for 2 hr and treated with the indicated concentration of A77 1726 or PLX 4720 (1 μM) for another 2 hr (A) or treated with A77 1726 (100 μM) for the indicated time (B & C). Cells were harvested and analyzed for protein phosphorylation by specific antibodies as indicated. Protein loading was monitored by stripping membrane and re-probing with antibodies against non-phosphorylated proteins. […] A375 cells seeded in a 6-well plate were starved in DMEM medium containing 05% FBS for 2 hr and treated with the indicated concentration of A77 1726 in the absence or presence of uridine (200 μM). Phosphorylated and total proteins were analyzed by Western blot as described above.
# (§2) A375 cells seeded in 6-well plates were starved in DMEM medium containing 0.5% FBS for 2 hr and then pre-treated with vehicle (0.1% dimethyl sulfoxide), LY294002 (10 μM) (A), PPP (1 μM) (B), or the inhibitors of the MAP kinase pathway (PLX4720, 1 μM; U0126, 10 μM; PD98059, 10 μM) (C) for 1 hr. Cells were then treated with A77 1726 (100 μM) or rapamycin (20 nM) as indicated for 2 hr. Cells were harvested and analyzed for protein phosphorylation by specific antibodies as indicated. Protein loading was monitored by stripping membrane and re-probing with antibodies against non-phosphorylated proteins.
# (§3) Cells grown in 6-well plates were harvested and lysed in NP-40 lysis buffer (50 mM Tris-HCI (pH 8.0), 150 mM NaCl, 1% NP-40, 5 mM EDTA, 10 μg/ml aprotinin, 10 μg/ml leupeptin, and 1 mM phenylmethylsulfonyl fluoride). After incubation on ice for 30 min, the cell lysates were prepared by spinning down at 4° C., 15,000 rpm for 15 min. After electrophoresis and transfer to Immobolin membrane, proteins of interest were probed with their specific antibodies, followed by horseradish peroxidase-conjugated goat anti-rabbit IgG and SuperSignal Western Pico enhanced chemiluminoscence substrate (Pierce Chemical Co., Rockford, Ill.).
# (§4) The PI-3 and MAP kinase pathways play an important role in cell proliferation, differentiation, and cell cycle progress. Multiple genes in these two pathways are frequently mutated and have a commanding role in driving tumorigenesis and tumor cell proliferation (2; 3). […] Here we tested whether A77 1726 affected the activation of MAP and PI-3 kinase pathways. A375 cells grown in 6-well plates were starved in the media containing 0.5% FBS for 2 hr and then treated with the indicated concentration of A77 1726. […] We next explored the effect of A77 1726 in phosphorylation of the molecules in the PI-3 kinase pathway.
# [2] = tested on: ERK1/2^T202/Y204 and MEK1/2^S217/S221 phosphorylation; test: Western blot of MAP kinase pathway phosphorylation in A375 cells; type: cell-based; conditions: for block of A77 1726-induced ERK1/2 and MEK1/2 phosphorylation: A375 cells pre-treated with inhibitor 1 hr, then A77 1726 100 μM 2 hr; for effect on ERK1/2 and MEK phosphorylation, inhibitor alone: A375 cells, PLX 4720 1 μM, rapamycin 20 nM, PPP 1 μM
# Method: as §1, §2, §3, §4
# A375 cells [3] = test: Cell cycle analysis (propidium iodine, flow cytometer); type: cell-based; conditions: for effect on cell cycle, inhibitor alone: PLX4720 1 μM, U0126 10 μM, PD98059 10 μM, rapamycin 20 nM, LY294002 10 μM
# Method: (A) Ability of uridine to relieve the cell cycle arrest in the S phase. A375 cells grown in 6-well plates were treated with the indicated concentration of A771726 with or without uridine (200 μM) for 24 hr. Cell cycle was analyzed in a flow cytometer as described in Materials and Methods. (B) Effect of the MAP kinase pathway inhibitors on A77 1726-mediated cell cycle arrest in the S phase. A375 cells were treated with A771726 (100 μM) in the absence or presence of 0.1% DMSO, […] (1 μM), U0126 (10 μM), PD98059 (10 for 24 hr. Single cell suspensions were prepared and analyzed for cell cycle in a flow cytometer. (C) Effect of the PI-3 kinase pathway inhibitors and their effect on A77 1726-mediated cell cycle arrest. A375 cells were treated with A77 1726 (100 μM), rapamycin (20 nM), and/or LY294002 (10 μM). After incubation for 24 hr, cells were harvested and analyzed for cell cycle progress.
# (§5) Cells were grown in complete RPMI1640 medium with 10% fetal bovine serum in 6-well plates. Upon 60% confluence, the cells were treated with vehicle or with indicated concentrations of A77 1726 or various inhibitors as indicated for 24 hr. Cells were pulsed with 10 μM BrdU for 2 hr. Cells were harvested, denatured with 2N HCl for 5 min at room temperature followed by neutralization with 0.1M borate buffer (pH 8.5). After washing and blocking with normal mouse serum, the cells were stained with an Alexa Fluor 488-conjugated anti-BrdU monoclonal antibody (BD Bioscience), followed by analysis in a flow cytometer. Alexa Fluor 488-conjugated mouse IgG was included as a control. For cell cycle analysis, the cells were harvested and fixed with 2 ml cold 70% ethanol in PBS overnight at 4° C. Fixed cells were then washed 3 times with PBS, treated with RNaseA (100 μg/ml in 0.5 ml PBS). After incubation at room temperature for 30 min, cells were stained with 2.5 μl propidium iodine (10 mg/ml.) and immediately analyzed for DNA content in a flow cytometer.
# A375 cells [4] = test: BrdU incorporation (DNA replication), flow cytometry; type: cell-based; conditions: for block of A77 1726-induced BrdU incorporation / DNA synthesis: A77 1726 100 μM plus inhibitor; for effect on DNA replication (BrdU labeling), inhibitor alone: PLX4720 1 μM, U0126 10 μM, rapamycin 20 nM, LY294002 10 μM
# Method: (A) The effect of uridine to A77 1726-induced DNA synthesis. A375 cells were treated with the indicated concentration of A771726 in the absence or presence of uridine (200 μM) for 22 hr. After pulsing with BrdU (10 µM) for 2 hr, cells were harvested and analyzed for BrdU incorporation by staining with an Alexa Fluor-488-conjugated anti-BrdU monoclonal antibody followed by flow cytometry. (B) Effect of the MAP kinase pathway inhibitors to A77 1726-stimulated BrdU incorporation. A375 cells were treated with A77 1726 (100 μM) in the presence of 0.1% DMSO, PLX4720 (1 μM), U0126 (10 µM), PD98059 (10 μM). After incubation for 22 hr the cells were pulsed with BrdU for 2 hr. Single cell suspensions were stained for BrdU incorporation and analyzed for cell cycle in a flow cytometer as described in (A). (C) Effect of the PI-3 kinase pathway inhibitors and their effect on A77 1726-stimualted BrdU incorpration. A375 cells were treated with A771726 (100 μM), rapamycin (20 nM), and/or […] (10 μM). After incubation for 22 hr, cells were pulsed with BrdU for 2 hr, harvested and analyzed for BrdU labeling in a flow cytometer.
# as §5
# A375 cells [5] = test: Cell proliferation assay (ATP-based Cell-Glo)
# Method: A375 cells were seeded in 96-well plates (2000 cells/well) and incubated the indicated concentrations of A77 1726 for 72 hr in the absence or presence of various concentrations PLX4720 (A, C) with or without uridine (200 μM) (B, D). Cell proliferation was analyzed by an ATP-based Cell-Glo assay. One representative of three experiments with similar results was shown. *p<0.01.
# A375 cells were grown in complete RPMI 1640 medium supplemented with 10% fetal bovine serum. The cells were seeded in 96-well plates at the density of 2,000/well in the absence or presence of various concentrations of A77 1726, PLX4720, or uridine (200 μM). After incubation for 72 hr, cell proliferation was monitored by using an ATP-based Cell-Glo assay (Promegan, Madison, Wis.) following the manufacturer's instruction.
# [6] = tested on: ribosomal protein S6^S235/S236 phosphorylation; test: Western blot of S6 phosphorylation in A375 cells; type: cell-based; conditions: A375 cells; A77 1726 dose-dependent or 100 μM, rapamycin 20 nM, PPP 1 μM
# Method: as §1, §2, §3, §4
Compound,effect on AKT^S473 phosphorylation in A77 1726-treated cells [1],block of A77 1726-induced ERK1/2 and MEK1/2 phosphorylation [2],"effect on cell cycle, inhibitor alone (A375 cells [3]; A375 cells, 24 hr)",block of A77 1726-induced BrdU incorporation / DNA synthesis (A375 cells [4]),"effect on DNA replication (BrdU labeling), inhibitor alone (A375 cells [4])","effect on ERK1/2 and MEK phosphorylation, inhibitor alone [2]",other results
CNC(=O)c1cc(Oc2ccc(NC(=O)Nc3ccc(Cl)c(C(F)(F)F)c3)cc2)ccn1 [BAY 43-9006],further increase,able to block,–,–,–,–,–
COc1cccc(-c2cc(=O)c3ccccc3o2)c1N [PD98059],further increase,unable to block,arrest of the cell cycle in G1 phase,partially blocked,–,–,–
CCCS(=O)(=O)Nc1ccc(F)c(C(=O)c2c[nH]c3ncc(Cl)cc23)c1F [PLX4720],further increase,able to block,arrest of the cell cycle in G1 phase,able to block,completely block DNA replication,inhibited,effect on A375 cell proliferation (A375 cells [5]; PLX4720 100 or 500 nM by itself): inhibited; effect on A375 cell proliferation (A375 cells [5]; PLX4720 at 1 nM by itself): had no effect; effect on A375 cell proliferation in combination with A77 1726 (A375 cells [5]; in the absence or presence of uridine): additive effect
COc1cc([C@@H]2c3cc4c(cc3[C@H](O)[C@H]3COC(=O)[C@@H]23)OCO4)cc(OC)c1OC [PPP],–,abrogated,–,–,–,had no effect,effect on S6^S235/S236 phosphorylation [6]: had no effect; block of A77 1726- and rapamycin-induced AKT phosphorylation ([1]; A375 cells pre-treated with LY294002 10 μM or PPP 1 μM): largely blocked
N#CC(=C(/N)Sc1ccccc1N)/C(C#N)=C(\N)Sc1ccccc1N [U0126],further increase,able to block,arrest of the cell cycle in G1 phase,able to block,completely block DNA replication,–,–
"O=c1ccn([C@@H]2O[C@H](CO)[C@@H](O)[C@H]2O)c(=O)[nH]1 [Uridine, uridine]",–,–,–,–,–,–,"effect on cell cycle of A77 1726-treated cells (A375 cells [3]; A375 cells treated with A77 1726 at three concentrations plus uridine): almost normalize cell cycle; effect on cell cycle arrest, uridine alone (A375 cells [3]; A375 cells, uridine 200 μM, 24 hr): little effect"
